Assay results taken from US9573899B2, “USP7 inhibitor compounds and methods of use” (Genentech, Inc., priority 2015, dated 2017).

Molecular target: T1, USP5 (Homo sapiens, UniProt P45974)
T1 sequence (P45974 1-858): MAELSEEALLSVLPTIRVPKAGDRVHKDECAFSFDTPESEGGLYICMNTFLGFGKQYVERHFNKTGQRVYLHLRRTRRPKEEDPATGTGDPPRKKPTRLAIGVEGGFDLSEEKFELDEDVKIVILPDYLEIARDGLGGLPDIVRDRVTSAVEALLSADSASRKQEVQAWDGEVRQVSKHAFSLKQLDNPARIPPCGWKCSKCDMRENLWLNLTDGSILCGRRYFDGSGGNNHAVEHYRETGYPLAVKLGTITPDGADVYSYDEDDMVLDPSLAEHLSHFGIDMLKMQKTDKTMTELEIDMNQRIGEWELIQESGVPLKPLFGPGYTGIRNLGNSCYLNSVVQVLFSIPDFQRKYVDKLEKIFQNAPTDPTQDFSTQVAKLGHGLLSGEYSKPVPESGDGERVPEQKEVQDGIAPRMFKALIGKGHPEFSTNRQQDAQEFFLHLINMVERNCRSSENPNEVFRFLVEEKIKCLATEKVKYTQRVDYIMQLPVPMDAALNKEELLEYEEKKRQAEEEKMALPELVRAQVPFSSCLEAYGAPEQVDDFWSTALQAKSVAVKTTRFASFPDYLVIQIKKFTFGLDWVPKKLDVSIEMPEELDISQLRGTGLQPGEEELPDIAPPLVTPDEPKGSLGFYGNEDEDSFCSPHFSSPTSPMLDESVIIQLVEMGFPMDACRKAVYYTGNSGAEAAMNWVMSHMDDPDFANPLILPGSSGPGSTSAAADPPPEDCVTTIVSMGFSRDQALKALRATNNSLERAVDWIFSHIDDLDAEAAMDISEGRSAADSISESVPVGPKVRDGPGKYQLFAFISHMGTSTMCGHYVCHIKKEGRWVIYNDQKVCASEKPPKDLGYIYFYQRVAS
Assay: Ub-Rho110 DUB assay, Table 2, USP5

For `CCc1c(-c2ccc3[nH]ncc3c2)cnc(N)c1-c1ccc(O)cc1` [Compound 88, 4-[2-amino-4-ethyl-5-(1H-indazol-5-yl)-3-pyridyl]phenol], the IC50 was 18.6 µM.
